Test results taken from patent publication US20240246918A1, “COMPOUNDS AND COMPOSITIONS AS EIF4E INHIBITORS AND THE USES THEREOF” (Ribometrix, Inc., priority 2022, published 2024).

Columns and labels:
human eIF4E protein = target: T1, human eIF4E protein (Homo sapiens, UniProt P06730); assay: Biochemical competitive binding assay (TR-FRET competition, EDA-m7GDP-ATTO-647N probe); settings: read-out: hEIF4E TR-FRET IC50
T1 construct: purchased Novus NBP-45314
Procedure, shortened: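 IC50 values come from 4-parameter fits of the normalized 665/620 nm TR-FRET ratio. Compound was first incubated 15 min with 4 nM recombinant His-eIF4E bound to 2.5 nM Eu-anti-His antibody, then 15 min with 5 nM m7GDP-ATTO-647N tracer, in pH 7.5 HEPES buffer with 100 mM KCl, Tween-20 and BSA.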

[1] = test system: COLO 205 colorectal tumor cells; assay: Tumor cell viability inhibition assay (CellTiter-Glo 2.0, 72 hours); format: cell-based; settings: COLO 205 cell viability
Procedure, shortened: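 IC50 derived by 4-parameter fitting after normalizing luminescence to DMSO and max-inhibition wells. Compounds tested as 11 concentrations in 4-fold steps on COLO 205 cells seeded at 1500 per well in RPMI-1640/10% FBS; ATP content measured with CellTiter-Glo 2.0 after 72 h.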

T1 sequence (P06730 whole entry): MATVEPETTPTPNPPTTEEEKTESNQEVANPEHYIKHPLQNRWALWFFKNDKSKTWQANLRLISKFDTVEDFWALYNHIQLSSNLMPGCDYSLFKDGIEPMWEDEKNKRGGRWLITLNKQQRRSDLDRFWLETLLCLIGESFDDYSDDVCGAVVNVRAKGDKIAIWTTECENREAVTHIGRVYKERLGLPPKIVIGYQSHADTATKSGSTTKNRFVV

| IC50 (human eIF4E protein) [nM] | IC50 ([1]; Homo sapiens, COLO 205, 72 h) [µM] | IC50 [1] [µM] | Structure (SMILES) |
| --- | --- | --- | --- |
| < 100 | < 5 | – | Cc1cc(-c2cc(Cl)ccc2OCCn2c(C)nc3c(c2=O)C[C@H](N2CCC(COC(F)(F)F)CC2)CC3)c2scc(C(=O)O)c2n1 (single isomer, unassigned) [Compound 452] |
| < 100 | – | < 5 | COc1cc(CN(C)C2CCc3nc(C)n(CCOc4ccc(Cl)cc4-c4cc(C)nc5c(C(=O)NS(C)(=O)=O)csc45)c(=O)c3C2)ccn1 (single isomer, unassigned) [Compound 220] |
| < 100 | < 5 | – | Cc1cc(-c2cc(Cl)ccc2OCCn2c(C)nc3c(c2=O)C[C@@H](N2C[C@@H]4CC[C@H]2CC4OC(F)(F)F)CC32CC2)c2scc(C(=O)O)c2n1 (single isomer, unassigned) [Compound 605] |
| < 100 | < 5 | – | Cc1cc(-c2cc(Cl)ccc2OCCn2c(C)nc3c(c2=O)C[C@@H](N2CCCC[C@H]2c2cccc(F)c2)CC3)c2scc(C(=O)O)c2n1 (single isomer, unassigned) [Compound 542] |
| < 100 | < 5 | – | Cc1cc(-c2cc(Cl)ccc2OCCn2c(C)nc3c(c2=O)C[C@@](C)(N2CCC[C@]4(C2)CC4(F)F)CC3)c2scc(C(=O)O)c2n1 (single isomer, unassigned) [Compound 539] |
| < 100 | – | 5 to 20 | COC1CCN(C2CCc3nc(C)n(CC#Cc4ccc(Cl)cc4-c4ccnc5c(C(=O)O)csc45)c(=O)c3C2)CC1 (single isomer, unassigned) [Compound 410] |
| < 100 | < 5 | – | Cc1cc(-c2cc(Cl)ccc2OCCn2c(C)nc3c(c2=O)C[C@H](N2CCCC[C@H]2c2cccc(F)c2)CC3)c2scc(C(=O)O)c2n1 (single isomer, unassigned) [Compound 540] |
| < 100 | < 5 | – | Cc1cc(-c2cc(Cl)ccc2OCCn2c(C)nc3c(c2=O)C[C@@H](N2CCC(c4cnn(C)c4)CC2)CC3)c2scc(C(=O)O)c2n1 (single isomer, unassigned) [Compound 427] |
| 500 to 5000 | > 20 | – | Cc1cc(-c2cc(Cl)ccc2OCCn2c(C(F)(F)F)nc3c(c2=O)CC(N2CCC(OC(F)(F)F)CC2)CC3)c2scc(C(=O)O)c2n1 (single isomer, unassigned) [Compound 627] |
| < 100 | 5 to 20 | – | Cc1cc(-c2cc(Cl)ccc2OCCn2c(C)nc3c(c2=O)C[C@@H](N2CCC[C@]4(C2)CC4(F)F)CC3(C)C)c2scc(C(=O)O)c2n1 (single isomer, unassigned) [Compound 440] |
| < 100 | < 5 | – | Cc1cc(-c2cc(Cl)ccc2OCCn2c(C)nc3c(c2=O)C[C@@H](N2CCC4(CC2)NC(=O)NC4=O)CC3)c2scc(C(=O)O)c2n1 (single isomer, unassigned) [Compound 431] |
| < 100 | < 5 | – | Cc1cc(-c2cc(Cl)ccc2OCCn2c(C)nc3c(c2=O)C[C@@H](N2CCC[C@@H](c4ncccc4F)C2)CC3)c2scc(C(=O)O)c2n1 (single isomer, unassigned) [Compound 466] |
| < 100 | 5 to 20 | – | Cc1cc(-c2cc(Cl)ccc2OCCn2c(C)nc3c(c2=O)C[C@H](N2CCCC[C@H]2C)CC3)c2scc(C(=O)O)c2n1 (single isomer, unassigned) [Compound 408] |
| < 100 | – | < 5 | Cc1cc(-c2cc(Cl)ccc2OCCn2c(C)nc3c(c2=O)CC(C)(N(C)CC2CC(F)(F)C2)CC3)c2scc(C(=O)O)c2n1 (single isomer, unassigned) [Compound 600] |
| 500 to 5000 | > 20 | – | Cc1cc(-c2cc(Cl)ccc2OCCn2c(C)nc3c(c2=O)C[C@@H](N2CCC[C@@]4(CN(CC(F)(F)F)CC4(F)F)C2)CC3)c2scc(C(=O)O)c2n1 (single isomer, unassigned) [Compound 514] |
| < 100 | 5 to 20 | – | Cc1cc(-c2cc(Cl)ccc2OCCn2c(C)nc3c(c2=O)C[C@@H](N2CCCC[C@H]2C)CC3)c2scc(C(=O)O)c2n1 (single isomer, unassigned) [Compound 437] |
| < 100 | 5 to 20 | – | Cc1cc(-c2cc(Cl)ccc2OCCn2c(C)nc3c(c2=O)C[C@H](N2CCC(c4cnc(C(F)(F)F)nc4)CC2)CC3)c2scc(C(=O)O)c2n1 (single isomer, unassigned) [Compound 584] |
| 500 to 5000 | > 20 | – | Cc1cc(-c2cc(Cl)ccc2OCCn2c(C)nc3c(c2=O)C[C@H](N2CCCC[C@@H]2c2cccc(C(F)(F)F)c2)CC3)c2scc(C(=O)O)c2n1 (single isomer, unassigned) [Compound 590] |
| < 100 | < 5 | – | Cc1cc(-c2cc(Cl)ccc2OCCn2c(C)nc3c(c2=O)C[C@H](N2CC[C@@H](C(F)F)C2)CC3)c2scc(C(=O)O)c2n1 (single isomer, unassigned) [Compound 121] |

| IC50 (human eIF4E protein) [nM] | IC50 ([1]; Homo sapiens, COLO 205, 72 h) [µM] | IC50 [1] [µM] | Structure (SMILES) |
| --- | --- | --- | --- |
| < 100 | < 5 | – | Cc1cc(-c2cc(Cl)ccc2OCCn2c(C)nc3c(c2=O)C[C@@](C)(N2C[C@@H]4CC(F)(F)C[C@@H]4C2)CC3)c2scc(C(=O)O)c2n1 (stereo in doubt) [Compound 567] |
| < 100 | < 5 | – | Cc1cc(-c2cc(Cl)ccc2OCCn2c(C)nc3c(c2=O)C[C@H](N2CCC[C@H](OC(F)(F)F)C2)CC3)c2scc(C(=O)O)c2n1 (single isomer, unassigned) [Compound 457] |
| < 100 | < 5 | – | Cc1cc(-c2cc(Cl)ccc2OCCn2c(C)nc3c(c2=O)C[C@H](N2CCC(c4nc5ccc(F)cc5s4)CC2)CC3)c2scc(C(=O)O)c2n1 (single isomer, unassigned) [Compound 593] |
| < 100 | < 5 | – | CO[C@H](C1CCN([C@@H]2CCc3nc(C)n(CCOc4ccc(Cl)cc4-c4cc(C)nc5c(C(=O)O)csc45)c(=O)c3C2)CC1)C(F)(F)F (single isomer, unassigned) [Compound 552] |
| < 100 | > 20 | – | Cc1cc(-c2cc(Cl)ccc2OCCn2c(C)nc3c(c2=O)C[C@@H](N2CCCC[C@@H]2C)CC3)c2scc(C(=O)O)c2n1 (single isomer, unassigned) [Compound 409] |
| < 100 | 5 to 20 | – | Cc1cc(-c2cc(Cl)ccc2OCCn2c(C)nc3c(c2=O)C[C@H](N2CC[C@@H](OC(F)(F)F)C(C)(C)C2)CC3)c2scc(C(=O)O)c2n1 (single isomer, unassigned) [Compound 395] |
| < 100 | < 5 | – | Cc1cc(-c2cc(Cl)ccc2OCCn2c(C)nc3c(c2=O)C[C@H](N2CCC[C@@H](C(F)F)C2)CC32CC2)c2scc(C(=O)O)c2n1 (single isomer, unassigned) [Compound 616] |
| < 100 | < 5 | – | Cc1cc(-c2cc(Cl)ccc2OCCn2c(C)nc3c(c2=O)C[C@@H](N2CCC(c4ccccc4OC(F)(F)F)CC2)CC3)c2scc(C(=O)O)c2n1 (single isomer, unassigned) [Compound 572] |
| < 100 | < 5 | – | CO[C@@H]1CCN([C@@H]2CCc3nc(C)n(CCOc4ccc(Cl)cc4-c4cc(C)nc5c(C(=O)O)csc45)c(=O)c3C2)CC1(C)C (single isomer, unassigned) [Compound 376] |
| < 100 | < 5 | – | Cc1csc(C2CCN([C@@H]3CCc4nc(C)n(CCOc5ccc(Cl)cc5-c5cc(C)nc6c(C(=O)O)csc56)c(=O)c4C3)CC2)n1 (single isomer, unassigned) [Compound 429] |
| 100 to 500 | 5 to 20 | – | Cc1cc(-c2cc(Cl)ccc2OCCn2c(C)nc3c(c2=O)C[C@@H](N2CCCC(C)[C@@H]2C(F)(F)F)CC32CC2)c2scc(C(=O)O)c2n1 (single isomer, unassigned) [Compound 625] |
| < 100 | < 5 | – | CO[C@H]1CCN([C@@H]2CCc3nc(C)n(CCOc4ccc(Cl)cc4-c4cc(C)nc5c(C(=O)O)csc45)c(=O)c3C2)CC1(C)C (single isomer, unassigned) [Compound 415] |
| < 100 | – | < 5 | Cc1nc2c(c(=O)n1CC#Cc1ccc(Cl)cc1-c1ccnc3c(C(=O)NS(C)(=O)=O)csc13)CC(N1CCC(OC(F)(F)F)CC1)CC2 (single isomer, unassigned) [Compound 601] |
| < 100 | – | < 5 | Cc1cc(-c2cc(Cl)ccc2OCCn2c(C)nc3c(c2=O)CC(N2CCC(OC(F)(F)F)CC2)CC3)c2scc(C(=O)NS(C)(=O)=O)c2n1 (single isomer, unassigned) [Compound 105] |
| < 100 | < 5 | – | COC1CCN(C2CCc3nc(C)n(CC#Cc4ccc(Cl)cc4-c4ccnc5c(C(=O)NS(C)(=O)=O)csc45)c(=O)c3C2)CC1 (single isomer, unassigned) [Compound 414] |
| < 100 | < 5 | – | Cc1cc(-c2cc(Cl)ccc2OCCn2c(C)nc3c(c2=O)C[C@@H](N2CCC(C(F)(F)F)CC2)CC32CC2)c2scc(C(=O)O)c2n1 (single isomer, unassigned) [Compound 603] |
| < 100 | < 5 | – | Cc1cc(-c2cc(Cl)ccc2OCCn2c(C)nc3c(c2=O)C[C@@H](N2CCC(n4cc(Cl)cn4)CC2)CC3)c2scc(C(=O)O)c2n1 (single isomer, unassigned) [Compound 109] |
| < 100 | > 20 | – | Cc1cc(-c2cc(Cl)ccc2OCCn2c(C)nc3c(c2=O)CC(CN)(N2CCC(OC(F)(F)F)CC2)CC3)c2scc(C(=O)O)c2n1 (single isomer, unassigned) [Compound 622] |

| Structure (SMILES) | IC50 (human eIF4E protein) [nM] | IC50 ([1]; Homo sapiens, COLO 205, 72 h) [µM] | IC50 [1] [µM] |
| --- | --- | --- | --- |
| COC1(C(F)(F)F)CC2CCC(C1)N2[C@H]1CCc2nc(C)n(CCOc3ccc(Cl)cc3-c3cc(C)nc4c(C(=O)O)csc34)c(=O)c2C1 (single isomer, unassigned) [Compound 503] | 100 to 500 | 5 to 20 | – |
